Laboratory results taken from US20040044077A1, “Agents for inhibiting or restoring skin damage caused by drying and method for evaluating the same” (priority 2000, published 2004).

Assays:
filaggrin gene = test: Expression level of the filaggrin gene (RT-PCR) in cultured human keratinocytes exposed to a gaseous phase (drying); type: cell-based; settings: drying stimulus; for Relative expression level of filaggrin gene (%) Mean: no treatment = 100
Procedure: (§1) Normal keratinocytes of human preputial origin and 3T3 cells of mouse origin were used.
(§2) The culture medium was DMEM-Ham's F12 (3:1) containing hydrocortisone, cholera enterotoxin, epidermal growth factor, insulin and 10% FBS.
(§3) The keratinocytes were cultured according to the method described in Rheinwald et al., Cell, 6, 331-344(1975).
(§4) An outline is given below. 3T3 cells were treated with mitomycin C and used as a feeder layer. Normal human keratinocytes (1×10^5 cells) were inoculated onto mitomycin C-treated 3T3 cells and cultured at 37° C. in a 95% air-5% carbon dioxide environment until they became confluent. They were exposed to a gaseous phase by removing the culture supernatant. Each test substance was added 30 minutes before exposed to a gaseous phase, followed by incubation at 37° C. The culture to which no test sample was added was used as a control. The exposure to a gaseous phase was carried out at 37° C. for 0-6 hours.
After each test substance was added to the aforesaid culture system and the cells were exposed to a gaseous phase for a predetermined period of time, RNA was extracted from the cells according to the AGPC method. This RNA was subjected to RT-PCR in the following manner. A primer specific for fillaggrin was prepared on the basis of the base sequence of filaggrin which is reported in McKinley-Grant L. J. et al., Proc. Natl. Acad. Sci. U.S.A., 86, 4848-4852(1989). In order to assay mRNA for filaggrin, RT-PCR was carried out by converting mRNA to cDNA with the aid of reverse transcriptase. Using this cDNA as a template with the aforesaid primer, a polymerase reaction (a well-known reaction) was carried out. After the PCR product was electrophoresed in agarose gel, the resulting gel was soaked in an ethidium bromide solution and assayed for DNA. The quantitative analysis of DNA bands was carried out with NIH Image (analytical program). A correction was made with the aid of glyceraldehyde-3-phosphate dehydrogenase (G3PDH).
(6-8) The efficacies of other active ingredients and combinations of active ingredients in inhibiting a reduction in the expression of the filaggrin gene in cultured human keratinocytes as induced by drying are shown in Tables 1 and 2 below, respectively. In these tables, the degree to which the addition of a drug inhibited a reduction in gene expression is expressed as a percentage, assuming that the gene expression before drying is 100% and the gene expression after drying is […]. In Table 1, each active ingredient was added at an extract concentration of 0.5%. In Table 2, compositions containing the indicated active ingredient(s) at the indicated concentration(s) (in % by weight) were tested.
The aforesaid recovery rates (%) indicate the degree to which the addition of each test substance restored the expression level of the filaggrin gene as compared with that in the untreated group not exposed to a drying stimulus.

filaggrin protein = test: Amount of filaggrin protein (western blotting) in cultured human keratinocytes exposed to a gaseous phase (drying); type: cell-based; settings: culture in the presence of 10% glycerol, FIG. 3
Procedure: as §1, §2, §3, §4
After each test substance was added to the aforesaid culture system and the cells were exposed to a gaseous phase for a predetermined period of time, protein was extracted from the cells. According to a conventional method, filaggrin protein or filaggrin protein precursor (profilaggrin) was determined by western blotting. An outline is given below. […] The quantitative analysis of bands was carried out with NIH Image (analytical program). […]

| Structure (SMILES) | Recovery rate (%) (filaggrin gene; 0.15% by weight) | Relative expression level of filaggrin gene (%) Mean (filaggrin gene; 0.15% by weight) | Recovery rate (%) (filaggrin gene; 0.30% by weight) | Relative expression level of filaggrin gene (%) Mean (filaggrin gene; 0.30% by weight) | effect on reduction in filaggrin protein level induced by drying (filaggrin protein) |
| --- | --- | --- | --- | --- | --- |
| OC[C@@H](O)[C@H](O)[C@@H](O)CO [xylitol] | 5.7% | 50% | 37.7% | 67% |  |
| OCC(O)CO [glycerol] | 7.5% | 51% | 60.4% | 79% | inhibiting a reduction in filaggrin protein level |
